Measured values published in patent US20030195246A1, “Seamless soft capsule preparations containing dihydrobenzofuran derivatives” (priority 2000, published 2003).

Experiment: BO-653 stability test in different fats and oils (accelerated test, HPLC residue rate)
Type: physicochemical
Details: 80° C. for 17 hours
Method: A test was conducted on the effect of oxygen on decomposition of BO-653 (4,6-ditert-butyl-2,2-di-n-pentyl-5-hydroxy-2,3-dihydrobenzofuran) and its stability in various fats and oils. There were prepared samples consisting of 70 mg solutions of BO-653 in different fats and oils (soybean oil (product of Wako Pure Chemicals Industries, Ltd.), olive oil (product of Wako Pure Chemicals Industries, Ltd.), MCT (ODO-C: product of The Nisshin oil Mills, Ltd.), tricaprilin (product of Wako Pure Chemicals Industries, Ltd.) and linoleic acid (product of NOF Corp.)), each in a proportion of 50 wt % in a 5 cc glass vial, as well as a sample of 35 mg BO-653 in a 5 cc glass vial. An accelerated test was conducted at 80° C. for 17 hours, in a case with sealing of the head space of each sample vial after argon substitution and a case with sealing without argon substitution, and the residue rate was determined by HPLC measurement of the BO-653 content after the test.

## CCCCCC1(CCCCC)Cc2c(cc(C(C)(C)C)c(O)c2C(C)(C)C)O1 [BO-653, 4,6-ditert-butyl-2,2-di-n-pentyl-5-hydroxy-2,3-dihydrobenzofuran]
No argon substitution (presence of oxygen), 50 wt % in soybean oil, compared with other fats and oils
  stability of BO-653: highest stability
No argon substitution (presence of oxygen), all of the samples
  residue rate: lower with no argon substitution than with argon substitution
With argon substitution (absence of oxygen), any of the media, including BO-653 alone
  residue rate: virtually no reduction in residue rate
